Assay results: paper PMC6304311 (Influenza and Other Respiratory Viruses, 2018)
Read-outs that look alike come from different tables or passages of the source.

Key:
[1] = molecular target: T1, NA from influenza A(H3N2) virus isolates (Influenza A virus, UniProt V5P6L4); type: biochemical
[2] = molecular target: NA from influenza A(H1N1)pdm09 virus isolates (Influenza A virus, UniProt C7FH46); type: biochemical
[3] = test system: NA from influenza A(H1N1)pdm09 virus isolates; settings: cited from earlier work; for IC50: read-out: IC50, susceptible reference strain
[4] = molecular target: T1, NA from influenza A(H3N2) virus isolates; settings: cited from earlier work
[5] = molecular target: T2, NA from influenza A(H1N1) virus isolates (Influenza A virus, UniProt C0LLZ0); type: biochemical
[6] = molecular target: T2, NA from influenza A(H1N1) virus isolates; settings: cited from earlier work
[7] = molecular target: NA from influenza B virus isolates (Influenza B virus, UniProt A0A1S5RAG6); type: biochemical
[8] = read-out: IC50, susceptible reference strain

| SMILES | Susceptible [1] | Susceptible [2] | susceptibility phenotype of reference virus [3] | IC50 [3] | susceptibility phenotype of reference virus [4] | Susceptible [5] | outlier virus isolates [5] | susceptibility phenotype of reference virus [6] | IC50 ([1]; read-out: IC50 Median (range)) | IC50 ([1]; read-out: IC50 Statistical cutoff (X 0.75 + 3IQR)) | IC50 ([1]; read-out: IC50 X 0.75 (75th percentile)) | Susceptible [7] | IC50 [4, 8] | share of virus isolates with markedly increased IC50 [5] | IC50 [6, 8] |
| --- | --- | --- | --- | --- | --- | --- | --- | --- | --- | --- | --- | --- | --- | --- | --- |
| CC(=O)N[C@H]1[C@H]([C@H](O)[C@H](O)CO)OC(C(=O)O)=C[C@@H]1N=C(N)N [zanamivir] | susceptible and Yes | susceptible and Yes | susceptible | 0.42 nM | susceptible | susceptible and Yes | 3/4 | susceptible | – | – | – | – | – | – | – |
| CCOC(=O)C1=C[C@@H](OC(CC)CC)[C@H](NC(C)=O)[C@@H](N)C1 [oseltamivir] | susceptible and Yes | susceptible and Yes | – | 0.1 nM | – | susceptible and Yes and No | 2/4 | – | 0.05 nM | 0.15 nM | 0.06 nM | susceptible and Yes | 0.21 nM | 97.9% | 0.13 nM |
